Source: patent publication US20250129021A1, “SMALL MOLECULE PROTEIN SYNTHESIS MODULATORS” (Interdict Bio, Inc., priority 2023, published 2025)
pIC50: −log10 of the molar value. Structures can show the parent of a compound that is named as a salt.

Legend:
Format in all cases: biochemical
Conditions in all cases: HeLa S3 lysate, sfGFP/mCherry ratio, 2 hrs at 30° C.
MYC = assay: In vitro transcription-translation (IVTT) assay, MYC reporter
How it was run: (§1)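 Reporter: mCherry, P2A, then 3×FLAG-target peptide-sfGFP fusion, IRES-initiated; HeLa S3 lysate IVTT; cpd dilutions 30 μM−0.1 μM half-log in 100% DMSO (dilution-plate conc); DNA added last; 2 h, 30° C; PBS quench.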

ALK = assay: In vitro transcription-translation (IVTT) assay, ALK reporter
How it was run: as §1

KRAS G12D = assay: In vitro transcription-translation (IVTT) assay, KRAS G12D reporter
How it was run: as §1

| SMILES | pIC50 (MYC) | pIC50 (ALK) | pIC50 (KRAS G12D) |
| --- | --- | --- | --- |
| COc1ccc(C[C@H]2NC[C@H](O)[C@H]2OC(=O)NCC[C@H]2CNCCN2Cc2ccccc2)cc1 [V187568, (2R,3S,4S)-4-hydroxy-2-[(4-methoxyphenyl)methyl]pyrrolidin-3-yl N-{2-[(2S)-1-benzylpiperazin-2-yl]ethyl}carbamate] | < 4.52 | 4.52 to 4.70 | < 4.52 |
| COc1ccc(C[C@H]2NC[C@H](O)[C@H]2OC(=O)NCCN2C[C@@H](NC(=O)C3CC(F)(F)C3)[C@H](NC(=O)C3CC(F)(F)C3)C2)cc1 [V187554] | < 4.52 | < 4.52 | < 4.52 |
| CCCCN(CCCC)CCCNC(=O)O[C@@H]1[C@@H](O)CN[C@@H]1Cc1ccc(OC)cc1 [V187386, (2R,3S,4S)-4-hydroxy-2-[(4-methoxyphenyl)methyl]pyrrolidin-3-yl N-[3-(dibutylamino)propyl]carbamate] | < 4.52 | < 4.52 | < 4.52 |
| COc1ccc(C[C@H]2NC[C@H](O)[C@H]2OC(=O)NCC[C@H]2CN(Cc3ccccc3)CCN2Cc2ccccc2)cc1 [V187315] | < 4.52 | < 4.52 | < 4.52 |
| COc1ccc(C[C@H]2NC[C@H](O)[C@H]2OC(=O)NC[C@@H]2NC(=O)CNC2=O)cc1 [V187381, (2R,3S,4S)-4-hydroxy-2-[(4-methoxyphenyl)methyl]pyrrolidin-3-yl N-{[(2S)-3,6-dioxopiperazin-2-yl]methyl}carbamate] | < 4.52 | < 4.52 | < 4.52 |
| COc1ccc(C[C@H]2NC[C@H](O)[C@H]2OC(=O)NC2CC(F)(F)C2)cc1 [V187191, (2R,3S,4S)-4-hydroxy-2-[(4-methoxyphenyl)methyl]pyrrolidin-3-yl N-(3,3-difluorocyclobutyl)carbamate; trifluoroacetic acid] | 4.52 to 4.70 | > 5.00 | < 4.52 |
| COc1ccc(C[C@H]2NC[C@H](O)[C@H]2OC(=O)NCCN2CCC2)cc1 [V187566, (2R,3S,4S)-4-hydroxy-2-[(4-methoxyphenyl)methyl]pyrrolidin-3-yl N-[2-(azetidin-1-yl)ethyl]carbamate; trifluoroacetic acid] | < 4.52 | 4.70 to 5.00 | < 4.52 |
| COc1ccc(C[C@H]2NC[C@H](O)[C@H]2OC(=O)NCCN2CCC3(CNC3)C2)cc1 [V187644, (2R,3S,4S)-4-hydroxy-2-[(4-methoxyphenyl)methyl]pyrrolidin-3-yl N-(2-{2,6-diazaspiro[3.4]octan-6-yl}ethyl)carbamate; trifluoroacetic acid] | < 4.52 | 4.52 to 4.70 | < 4.52 |
| COc1ccc(C[C@H]2NC[C@H](O)[C@H]2OC(=O)NCCN2CC(O)(CNC(C)=O)C2)cc1 [V187582, (2R,3S,4S)-4-hydroxy-2-[(4-methoxyphenyl)methyl]pyrrolidin-3-yl N-{2-[3-(acetamidomethyl)-3-hydroxyazetidin-1-yl]ethyl}carbamate hydrochloride] | < 4.52 | 4.70 to 5.00 | < 4.52 |
| COc1ccc(C[C@@H]2NC[C@@H](O)[C@H]2OC(=O)NCCN(CCC(N)=O)Cc2c[nH]cn2)cc1 [V187539, (2S,3S,4R)-4-hydroxy-2-[(4-methoxyphenyl)methyl]pyrrolidin-3-yl N-{2-[(2-carbamoylethyl)(1H-imidazol-4-ylmethyl)amino]ethyl}carbamate; trifluoroacetic acid] | > 5.00 | > 5.00 | 4.52 to 4.70 |
| COc1ccc(C[C@H]2NC[C@H](O)[C@H]2OC(=O)NCCNc2c(N)c(=O)c2=O)cc1 [V187518, (2R,3S,4S)-4-hydroxy-2-[(4-methoxyphenyl)methyl]pyrrolidin-3-yl N-{2-[(2-amino-3,4-dioxocyclobut-1-en-1-yl)amino]ethyl}carbamate; trifluoroacetic acid] | < 4.52 | 4.70 to 5.00 | < 4.52 |
| COc1ccc(C[C@H]2NC[C@H](O)[C@H]2OC(=O)NCCc2cnn(Cc3ccccc3)c2)cc1 [V187439, (2R,3S,4S)-4-hydroxy-2-(4-methoxybenzyl)pyrrolidin-3-yl (2-(1-benzyl-1H-pyrazol-4-yl)ethyl) carbamate] | > 5.00 | > 5.00 | 4.52 to 4.70 |
| COCCN(CCNC(=O)O[C@@H]1[C@H](O)CN[C@H]1Cc1ccc(OC)cc1)CCc1ccccc1 [V187508, (2S,3S,4R)-4-hydroxy-2-[(4-methoxyphenyl)methyl]pyrrolidin-3-yl N-{2-[(2-methoxyethyl)(2-phenylethyl)amino]ethyl}carbamate] | < 4.52 | 4.70 to 5.00 | < 4.52 |
| COc1ccc(C[C@H]2NC[C@H](O)[C@H]2OC(=O)NCCCCN)cc1 [V187592, (2R,3S,4S)-4-hydroxy-2-[(4-methoxyphenyl)methyl]pyrrolidin-3-yl N-(4-aminobutyl)carbamate; trifluoroacetic acid] | > 5.00 | > 5.00 | > 5.00 |
| COc1ccc(C[C@H]2NC[C@H](O)[C@H]2OC(=O)NC[C@@H]2CCCO2)cc1 [V187520, (2R,3S,4S)-4-hydroxy-2-[(4-methoxyphenyl)methyl]pyrrolidin-3-yl N-[(2S)-oxolan-2-ylmethyl]carbamate; trifluoroacetic acid] | 4.52 to 4.70 | > 5.00 | < 4.52 |
| CCN(CC)CCCNC(=O)O[C@@H]1[C@@H](O)CN[C@@H]1Cc1ccc(OC)cc1 [V187387, (2R,3S,4S)-4-hydroxy-2-[(4-methoxyphenyl)methyl]pyrrolidin-3-yl N-[3-(diethylamino)propyl]carbamate trifluoroacetic acid salt] | 4.52 to 4.70 | > 5.00 | < 4.52 |
| CCN(Cc1ccccc1)Cc1nnc(NC(=O)O[C@@H]2[C@@H](O)CN[C@@H]2Cc2ccc(OC)cc2)s1 [V187597, (2R,3S,4S)-4-hydroxy-2-[(4-methoxyphenyl)methyl]pyrrolidin-3-yl N-(5-{[benzyl(ethyl)amino]methyl}-1,3,4-thiadiazol-2-yl)carbamate] | < 4.52 | < 4.52 | < 4.52 |
| COCc1nnc(NC(=O)O[C@@H]2[C@@H](O)CN[C@@H]2Cc2ccc(OC)cc2)s1 [V187730, (2R,3S,4S)-4-hydroxy-2-[(4-methoxyphenyl)methyl]pyrrolidin-3-yl N-[5-(methoxymethyl)-1,3,4-thiadiazol-2-yl]carbamate] | < 4.52 | < 4.52 | < 4.52 |
| COc1ccc(C[C@H]2NC[C@H](O)[C@H]2OC(=O)Nc2nnc(C)s2)cc1 [V187553, (2R,3S,4S)-4-hydroxy-2-[(4-methoxyphenyl)methyl]pyrrolidin-3-yl N-(5-methyl-1,3,4-thiadiazol-2-yl)carbamate; trifluoroacetic acid] | < 4.52 | < 4.52 | < 4.52 |

Continued, values first:

| pIC50 (MYC) | pIC50 (ALK) | pIC50 (KRAS G12D) | SMILES |
| --- | --- | --- | --- |
| > 5.00 | > 5.00 | 4.70 to 5.00 | COc1ccc(C[C@H]2NC[C@H](O)[C@H]2OC(=O)NCC2CCSCC2)cc1 [V187516, (2R,3S,4S)-4-hydroxy-2-[(4-methoxyphenyl)methyl]pyrrolidin-3-yl N-(thian-4-ylmethyl) carbamate] |
| < 4.52 | > 5.00 | < 4.52 | COc1ccc(C[C@H]2NC[C@H](O)[C@H]2OC(=O)NCCN2CC(N)C2)cc1 [V187624, (2R,3S,4S)-4-hydroxy-2-[(4-methoxyphenyl)methyl]pyrrolidin-3-yl N-[2-(3-aminoazetidin-1-yl)ethyl]carbamate] |
| > 5.00 | > 5.00 | 4.70 to 5.00 | COc1ccc(C[C@H]2NC[C@H](O)[C@H]2OC(=O)NCCOCCn2ccnc2)cc1 [V187628, (2R,3S,4S)-4-hydroxy-2-[(4-methoxyphenyl)methyl]pyrrolidin-3-yl N-{2-[2-(imidazol-1-yl)ethoxy]ethyl}carbamate; trifluoroacetic acid] |
| < 4.52 | < 4.52 | < 4.52 | COc1ccc(C[C@H]2NC[C@H](O)[C@H]2OC(=O)N[C@@H]2CCNC2)cc1 [V187688, (2R,3S,4S)-4-hydroxy-2-(4-methoxybenzyl)pyrrolidin-3-yl ((R)-pyrrolidin-3-yl)carbamate] |
| < 4.52 | 4.70 to 5.00 | < 4.52 | COc1ccc(C[C@H]2NC[C@H](O)[C@H]2OC(=O)NC2CNC2)cc1 [V187679, (2R,3S,4S)-4-hydroxy-2-(4-methoxybenzyl)pyrrolidin-3-yl azetidin-3-ylcarbamate] |
| 4.70 to 5.00 | > 5.00 | 4.70 to 5.00 | COc1ccc(C[C@H]2NC[C@H](O)[C@H]2OC(=O)NCCCCCN(C)C)cc1 [V187638, (2R,3S,4S)-4-hydroxy-2-[(4-methoxyphenyl)methyl]pyrrolidin-3-yl N-[5-(dimethylamino)pentyl]carbamate] |
| 4.70 to 5.00 | > 5.00 | 4.52 to 4.70 | COc1ccc(C[C@H]2NC[C@H](O)[C@H]2OC(=O)NCCCOCC(C)C)cc1 [V187437, (2R,3S,4S)-4-hydroxy-2-[(4-methoxyphenyl)methyl]pyrrolidin-3-yl N-[3-(2-methylpropoxy)propyl]carbamate] |
| 4.70 to 5.00 | > 5.00 | 4.52 to 4.70 | COc1ccc(C[C@H]2NC[C@H](O)[C@H]2OC(=O)NCCOCCN2C(=O)CNC2=O)cc1 [V187627] |
| < 4.52 | 4.52 to 4.70 | < 4.52 | COc1ccc(C[C@H]2NC[C@H](O)[C@H]2OC(=O)NCCN2C[C@@H](O)[C@H](NC(C)=O)C2)cc1 [V187578, (2R,3S,4S)-4-hydroxy-2-[(4-methoxyphenyl)methyl]pyrrolidin-3-yl N-{2-[(3R,4R)-3-acetamido-4-hydroxypyrrolidin-1-yl]ethyl}carbamate] |
| < 4.52 | < 4.52 | < 4.52 | COc1ccc(C[C@H]2NC[C@H](O)[C@H]2OC(=O)NCCN2CCC3(CC(O)C3)C2)cc1 (stereo partly drawn) [V187642, (2R,3S,4S)-4-hydroxy-2-[(4-methoxyphenyl)methyl]pyrrolidin-3-yl N-(2-{2-hydroxy-6-azaspiro[3.4]octan-6-yl}ethyl)carbamate] |
